Marks after values point to notes of the source that are not given here.
Test system: cancer-related neuropathic pain
Test: Open label dose escalation study of flupirtine, case studies JE and RM
Details: flupirtine 100 mg qid; for SCORE RELATIONSHIPS / SCORE MOOD / SCORE ENJOYMENT / SCORE SLEEP / SCORE WALKING / SCORE GENERAL ACTIVITY / SCORE TOTAL ACTIVITY: pain interference 1-10; for SCORE RELATIONSHIPS / SCORE NAUSEA / WHO PERFORMANCE STATUS: day 1 baseline 3; for SCORE MOOD / SCORE POOR APPETITE / SCORE UN[…] GAIT / PAIN SCORE RIGHT NOW: day 1 baseline 4; for SCORE ENJOYMENT / SCORE SLEEP: day 1 baseline 6; for SCORE WALKING: day 1 baseline 7; for SCORE GENERAL ACTIVITY / SCORE TOTAL ACTIVITY / AVERAGE PAIN LAST 24 HOURS: day 1 baseline 8; for SCORE CONSTIPATION / SCORE INDIGESTION / SCORE POOR CONCENTRATION / SCORE DROWSINESS / SCORE NAUSEA / SCORE POOR APPETITE / SCORE UN[…] GAIT: scale 1-4; for SCORE CONSTIPATION / SCORE INDIGESTION / SCORE POOR CONCENTRATION: day 1 baseline 1; for SCORE DROWSINESS: day 1 baseline 2; for LEAST PAIN LAST 24 HRS / PAIN SCORE RIGHT NOW / AVERAGE PAIN LAST 24 HOURS / WORST PAIN SCORE LAST 24 HOURS: scale to 10; for LEAST PAIN LAST 24 HRS / electric pain score / freezing pain score / numbness score / score for increased pain due to touch / score for increased pain due to weather changes / squeezing pain score: day 1 baseline 0; for WORST PAIN SCORE LAST 24 HOURS / PERCENTAGE PAIN RELIEF LAST 24 HOURS: day 1 baseline 10; for WHO PERFORMANCE STATUS: 0=fully active, 4=completely disabled; for neuropathic discriminant function score: >0 = neuropathic, day 1 baseline 0.262; for score for overly sensitive to touch / tingling pain score: day 1 baseline 20; for burning pain score / overwhelming pain score: day 1 baseline 90; for for shooting pain score / unpleasant pain score: day 1 baseline 100

Q: CCOC(=O)Nc1ccc(NCc2ccc(F)cc2)nc1N [flupirtine] was tested. Which “SCORE RELATIONSHIPS” value (RM day 5) did it give?
A: The value was 3.

Q: And the “SCORE MOOD” value (RM day 5)?
A: The value was 3.

Q: What about the “SCORE ENJOYMENT” value (RM day 5) of the same compound?
A: Its value is 6.

Q: What about the “SCORE SLEEP” value (RM day 5) of the same compound?
A: Its value is 6.

Q: And the “SCORE WALKING” value (RM day 5)?
A: Its value is 5.

Q: What about the “SCORE GENERAL ACTIVITY” value (RM day 5) of the same compound?
A: The value was 6.

Q: And the “SCORE TOTAL ACTIVITY” value (RM day 5)?
A: Its value is 6.

Q: And the “SCORE CONSTIPATION” value (RM day 5)?
A: The value was 2.

Q: What about the “SCORE INDIGESTION” value (RM day 5) of the same compound?
A: Its value is 1.

Q: What about the “SCORE POOR CONCENTRATION” value (RM day 5) of the same compound?
A: The value was 2.

Q: What about the “SCORE DROWSINESS” value (RM day 5) of the same compound?
A: The value was 1.

Q: And the “SCORE NAUSEA” value (RM day 5)?
A: The value was 1.

Q: And the “SCORE POOR APPETITE” value (RM day 5)?
A: The value was 2.

Q: What about the “SCORE UN[…] GAIT” value (RM day 5) of the same compound?
A: The value was 4.

Q: And the “LEAST PAIN LAST 24 HRS” value (RM day 5)?
A: Its value is 2.

Q: And the “PAIN SCORE RIGHT NOW” value (RM day 5)?
A: The value was 5.

Q: And the “AVERAGE PAIN LAST 24 HOURS” value (RM day 5)?
A: The value was 8.

Q: And the “WORST PAIN SCORE LAST 24 HOURS” value (RM day 5)?
A: Its value is 9.

Q: And the “WHO PERFORMANCE STATUS” value (RM day 6)?
A: The value was 3.

Q: What about the “neuropathic discriminant function score” value (RM day 6) of the same compound?
A: The value was −1.168.

Q: What about the electric pain score (RM day 6) of the same compound?
A: The electric pain score was 0.

Q: And the freezing pain score (RM day 6)?
A: The freezing pain score was 0.

Q: And the numbness score (RM day 6)?
A: The numbness score was 0.

Q: And the “score for increased pain due to touch” value (RM day 6)?
A: The value was 0.

Q: And the “score for increased pain due to weather changes” value (RM day 6)?
A: Its value is 0.

Q: And the squeezing pain score (RM day 6)?
A: The squeezing pain score was 0.

Q: What about the “PERCENTAGE PAIN RELIEF LAST 24 HOURS” value (RM day 6) of the same compound?
A: Its value is 50%.

Q: And the “score for overly sensitive to touch” value (RM day 6)?
A: Its value is 0.

Q: What about the tingling pain score (RM day 6) of the same compound?
A: The tingling pain score was 0.

Q: And the burning pain score (RM day 6)?
A: The burning pain score was 0.

Q: What about the overwhelming pain score (RM day 6) of the same compound?
A: The overwhelming pain score was 40.

Q: What about the “for shooting pain score” value (RM day 6) of the same compound?
A: Its value is 0.

Q: And the unpleasant pain score (RM day 6)?
A: The unpleasant pain score was 60.

Q: What about the “SCORE RELATIONSHIPS” value (RM day 6) of the same compound?
A: Its value is 3.

Q: What about the “SCORE MOOD” value (RM day 6) of the same compound?
A: Its value is 4.

Q: What about the “SCORE ENJOYMENT” value (RM day 6) of the same compound?
A: The value was 6.

Q: And the “SCORE SLEEP” value (RM day 6)?
A: The value was 4.

Q: What about the “SCORE WALKING” value (RM day 6) of the same compound?
A: Its value is 6.

Q: What about the “SCORE GENERAL ACTIVITY” value (RM day 6) of the same compound?
A: Its value is 6.

Q: And the “SCORE TOTAL ACTIVITY” value (RM day 6)?
A: Its value is 6.

Q: What about the “SCORE CONSTIPATION” value (RM day 6) of the same compound?
A: The value was 2.

Q: What about the “SCORE INDIGESTION” value (RM day 6) of the same compound?
A: Its value is 1.

Q: What about the “SCORE POOR CONCENTRATION” value (RM day 6) of the same compound?
A: Its value is 2.

Q: What about the “SCORE DROWSINESS” value (RM day 6) of the same compound?
A: Its value is 1.

Q: What about the “SCORE NAUSEA” value (RM day 6) of the same compound?
A: Its value is 2.

Q: What about the “SCORE POOR APPETITE” value (RM day 6) of the same compound?
A: Its value is 2.

Q: And the “SCORE UN[…] GAIT” value (RM day 6)?
A: The value was 4.

Q: And the “LEAST PAIN LAST 24 HRS” value (RM day 6)?
A: The value was 2.

Q: What about the “PAIN SCORE RIGHT NOW” value (RM day 6) of the same compound?
A: The value was 6.

Q: What about the “AVERAGE PAIN LAST 24 HOURS” value (RM day 6) of the same compound?
A: The value was 4.

Q: What about the “WORST PAIN SCORE LAST 24 HOURS” value (RM day 6) of the same compound?
A: Its value is 7.

Q: And the “WHO PERFORMANCE STATUS” value (RM day 7)?
A: Its value is 3.

Q: And the “neuropathic discriminant function score” value (RM day 7)?
A: Its value is −1.168.

Q: And the electric pain score (RM day 7)?
A: Its electric pain score is 0.

Q: And the freezing pain score (RM day 7)?
A: Its freezing pain score is 0.

Q: What about the numbness score (RM day 7) of the same compound?
A: The numbness score was 0.

Q: What about the “score for increased pain due to touch” value (RM day 7) of the same compound?
A: The value was 0.

Q: And the “score for increased pain due to weather changes” value (RM day 7)?
A: The value was 0.

Q: And the squeezing pain score (RM day 7)?
A: The squeezing pain score was 0.

Q: And the “PERCENTAGE PAIN RELIEF LAST 24 HOURS” value (RM day 7)?
A: Its value is 75%.

Q: What about the “score for overly sensitive to touch” value (RM day 7) of the same compound?
A: Its value is 0.

Q: And the tingling pain score (RM day 7)?
A: The tingling pain score was 0.

Q: What about the burning pain score (RM day 7) of the same compound?
A: Its burning pain score is 0.

Q: And the overwhelming pain score (RM day 7)?
A: The overwhelming pain score was 20.

Q: And the “for shooting pain score” value (RM day 7)?
A: Its value is 0.

Q: What about the unpleasant pain score (RM day 7) of the same compound?
A: The unpleasant pain score was 50.

Q: What about the “SCORE RELATIONSHIPS” value (RM day 7) of the same compound?
A: The value was 3.

Q: And the “SCORE MOOD” value (RM day 7)?
A: Its value is 6.

Q: What about the “SCORE ENJOYMENT” value (RM day 7) of the same compound?
A: Its value is 6.

Q: What about the “SCORE SLEEP” value (RM day 7) of the same compound?
A: The value was 6.

Q: And the “SCORE WALKING” value (RM day 7)?
A: The value was 6.

Q: What about the “SCORE GENERAL ACTIVITY” value (RM day 7) of the same compound?
A: Its value is 5.

Q: And the “SCORE TOTAL ACTIVITY” value (RM day 7)?
A: Its value is 5.

Q: What about the “SCORE CONSTIPATION” value (RM day 7) of the same compound?
A: Its value is 2.

Q: And the “SCORE INDIGESTION” value (RM day 7)?
A: Its value is 1.

Q: And the “SCORE POOR CONCENTRATION” value (RM day 7)?
A: The value was 2.

Q: What about the “SCORE DROWSINESS” value (RM day 7) of the same compound?
A: The value was 1.

Q: And the “SCORE NAUSEA” value (RM day 7)?
A: Its value is 2.

Q: And the “SCORE POOR APPETITE” value (RM day 7)?
A: The value was 3.

Q: And the “SCORE UN[…] GAIT” value (RM day 7)?
A: Its value is 4.

Q: What about the “LEAST PAIN LAST 24 HRS” value (RM day 7) of the same compound?
A: Its value is 0.

Q: What about the “PAIN SCORE RIGHT NOW” value (RM day 7) of the same compound?
A: The value was 5.

Q: What about the “AVERAGE PAIN LAST 24 HOURS” value (RM day 7) of the same compound?
A: Its value is 3.

Q: What about the “WORST PAIN SCORE LAST 24 HOURS” value (RM day 7) of the same compound?
A: Its value is 5.

Q: And the “WHO PERFORMANCE STATUS” value (RM day 8)?
A: Its value is 3.

Q: What about the electric pain score (RM day 8) of the same compound?
A: Its electric pain score is 0.

Q: And the freezing pain score (RM day 8)?
A: The freezing pain score was 0.

Q: What about the numbness score (RM day 8) of the same compound?
A: Its numbness score is 0.

Q: What about the “score for increased pain due to touch” value (RM day 8) of the same compound?
A: Its value is 0.

Q: What about the “score for increased pain due to weather changes” value (RM day 8) of the same compound?
A: Its value is 0.

Q: What about the squeezing pain score (RM day 8) of the same compound?
A: The squeezing pain score was 0.

Q: What about the “PERCENTAGE PAIN RELIEF LAST 24 HOURS” value (RM day 8) of the same compound?
A: The value was 75* %.

Q: And the “score for overly sensitive to touch” value (RM day 8)?
A: Its value is 0*.

Q: What about the tingling pain score (RM day 8) of the same compound?
A: Its tingling pain score is 0*.

Q: And the burning pain score (RM day 8)?
A: Its burning pain score is 0*.

Q: And the overwhelming pain score (RM day 8)?
A: The overwhelming pain score was 20*.

Q: What about the “for shooting pain score” value (RM day 8) of the same compound?
A: The value was 0*.

Q: What about the unpleasant pain score (RM day 8) of the same compound?
A: The unpleasant pain score was 45*.

Q: And the “SCORE RELATIONSHIPS” value (RM day 8)?
A: Its value is 3.

Q: What about the “SCORE MOOD” value (RM day 8) of the same compound?
A: Its value is 4*.

Q: And the “SCORE ENJOYMENT” value (RM day 8)?
A: Its value is 4*.

Q: And the “SCORE SLEEP” value (RM day 8)?
A: The value was 1*.

Q: And the “SCORE WALKING” value (RM day 8)?
A: Its value is 6*.

Q: What about the “SCORE GENERAL ACTIVITY” value (RM day 8) of the same compound?
A: Its value is 5*.

Q: And the “SCORE TOTAL ACTIVITY” value (RM day 8)?
A: The value was 5*.

Q: And the “SCORE CONSTIPATION” value (RM day 8)?
A: Its value is 3.

Q: What about the “SCORE INDIGESTION” value (RM day 8) of the same compound?
A: The value was 1.

Q: What about the “SCORE POOR CONCENTRATION” value (RM day 8) of the same compound?
A: Its value is 2.

Q: And the “SCORE DROWSINESS” value (RM day 8)?
A: Its value is 1*.

Q: And the “SCORE NAUSEA” value (RM day 8)?
A: Its value is 3.

Q: What about the “SCORE UN[…] GAIT” value (RM day 8) of the same compound?
A: The value was 4.

Q: And the “LEAST PAIN LAST 24 HRS” value (RM day 8)?
A: Its value is 1.

Q: And the “PAIN SCORE RIGHT NOW” value (RM day 8)?
A: Its value is 7.

— patent publication US8268821B2, “Methods and compositions” (priority 2003, dated 2012)
